Data reported in paper PMC4359714 (Naunyn-Schmiedeberg's Archives of Pharmacology, 2015).

Experiments:
rat TRPV3 = target: T1, rat TRPV3 (Rattus norvegicus, UniProt Q4QYD9); assay: Luminescence (aequorin) readout of intracellular calcium, CHO cells expressing rat TRPV3, 2-APB activation; format: cell-based; conditions: 200 uM 2-APB, read-out: rTRPV3 IC50
T1 construct: expressed in transfected cells; host or cells: CHO, T-REx tetracycline-inducible system (Invitrogen), co-transfected with aequorin
T1 sequence (Q4QYD9 1-791): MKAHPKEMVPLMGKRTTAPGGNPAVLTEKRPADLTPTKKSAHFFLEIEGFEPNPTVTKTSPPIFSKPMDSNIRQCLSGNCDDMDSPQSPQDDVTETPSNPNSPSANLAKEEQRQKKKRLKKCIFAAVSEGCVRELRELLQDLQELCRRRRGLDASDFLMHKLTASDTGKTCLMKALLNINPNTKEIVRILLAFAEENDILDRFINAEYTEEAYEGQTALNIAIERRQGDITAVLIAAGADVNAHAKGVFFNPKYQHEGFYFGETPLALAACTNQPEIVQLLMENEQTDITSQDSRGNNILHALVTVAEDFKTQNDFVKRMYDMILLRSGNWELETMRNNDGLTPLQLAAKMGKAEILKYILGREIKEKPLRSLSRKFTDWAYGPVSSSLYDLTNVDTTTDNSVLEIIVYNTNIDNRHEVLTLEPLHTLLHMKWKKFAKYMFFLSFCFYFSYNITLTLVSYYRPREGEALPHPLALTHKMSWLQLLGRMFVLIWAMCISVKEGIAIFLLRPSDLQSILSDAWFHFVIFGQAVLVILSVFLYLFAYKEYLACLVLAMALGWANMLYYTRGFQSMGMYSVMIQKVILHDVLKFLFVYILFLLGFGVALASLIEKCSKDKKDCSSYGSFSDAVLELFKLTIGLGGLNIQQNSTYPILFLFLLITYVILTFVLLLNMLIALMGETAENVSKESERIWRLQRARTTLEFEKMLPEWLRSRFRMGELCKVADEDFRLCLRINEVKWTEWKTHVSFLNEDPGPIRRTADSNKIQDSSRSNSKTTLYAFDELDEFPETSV
Description: Stable Chinese hamster ovary (CHO) cell lines expressing rat TRPA1, rat TRPM8, rat TRPV3, and human TRPV4 were generated using the tetracycline-inducible T-REx™ expression system from Invitrogen (Carlsbad, CA) and a stable CHO cell line expressing rat TRPV1 was generated using a constitutive expression system (Klionsky et al. [2007]). To enable a luminescence readout based on intracellular increase in calcium (Le Poul et al. [2002]), each cell line was also co-transfected with pcDNA3.1 plasmid containing jelly fish aequorin cDNA. Twenty-four hours before the assay, cells were seeded in 96-well plates and all TRP channel expression, except for TRPV1, was induced with 0.5 ug/mL tetracycline. […] Luminescence was measured by a CCD camera-based FLASH-luminometer built by Amgen, Inc. The following agonists were used to activate TRP channels: 0.5 uM capsaicin for TRPV1, 80 uM allyl isothiocyanate (AITC) for TRPA1, 1 uM icilin or cold buffer (12 °C) for TRPM8, 200 uM aminoethoxydiphenyl borate (2-APB) for TRPV3, and 1 uM 4α-phorbol 12,13-didecanoate (4α-PDD) for TRPV4. Antagonist IC50 values were calculated using GraphPad Prism 4.01 (GraphPad Software Inc, San Diego, CA).

[1] = test system: cold pressor effect in rats; assay: Cold-induced increase in blood pressure, cold pressor test (CPT); format: in vivo, rat; conditions: 10 mg/kg p.o.
Procedure: 2 h prior to anesthesia with sodium pentobarbital at 60 mg/kg i.p. Blood pressure was recorded for 5 min for “pre-cold baseline” and an additional 5 min during immersion of the paws and ventral half of the body in ice water. Mean blood pressure (MBP) was derived electronically using Digi-Med Blood Pressure Analyzer (Model 400). Plasma was collected through the artery catheter immediately after the cold pressor test for pharmacokinetic analysis. Percent increase from baseline and percent inhibition attributed to treatment with test compound were then determined using the following formula: (1) percent increase from baseline (mmHg) cold pressor effect = [(cold-evoked change in MBP)/MBP pre-cold] × 100; (2) percent inhibition of cold pressor effect = [1 − (cold-evoked change in MBP post-test compound/cold-evoked change in MBP post-vehicle)] × 100.

rats = assay: Open field activity; format: in vivo, rat; conditions: 100 mg/kg, 2 h before; 60 min; not significantly different from vehicle (14,484 ± 1686 cm)
Procedure: Rats were habituated in a reversed light cycle room in home cages for at least 1 week and acclimated to the testing room for 1 h prior to dosing. TRPM8 antagonist (10, 30, or 100 mg/kg) or vehicle (5 % Tween 80 in OraPlus®) was injected 2 h before placing an animal in the open-field apparatus. Open-field activity was measured using a system that counts interruptions of a set of photobeams for the course of 60 min (Kinder Scientific, Poway, CA). To begin a session, animals were removed from the home cage and placed individually into an independent Plexiglas box (41 cm L × 41 cm W × 38 cm H) surrounded by a frame consisting of 32 photocells (16Y and 16X) that track the movement of the animal. Photobeam breaks were used as an indication of activity and were measured as the following parameters per minute: basic movements (beam breaks), distance traveled (cm), time spent (s), and number of repetitive beam breaks (i.e., stereotypic movement). Chlordiazepoxide, which consistently elicits a decrease in open field activity, was used as a positive control. Chlordiazepoxide was formulated in saline at 5.6 mg/kg i.p. and dosed 30 min before the start of the open field assay.

IC50 (rat TRPV3): > 25 µM | total distance traveled, open field (rats): 13,640 ± 623 cm
SMILES: C[C@H](NC(=O)N1CCc2cccnc2[C@H]1c1ccc(C(F)(F)F)cc1)C(F)(F)F [AMG2850, (R)-8-(4-(trifluoromethyl)phenyl)-N-((S)-1,1,1-trifluoropropan-2-yl)-5,6-dihydro-1,7-naphthyridine-7(8H)-carboxamide]
effect on cold pressor response [1]: fully blocked
